Assay [1] relates to A375 cells (malignant melanoma). The experiment in a line: Inhibition of cancer cell proliferation, A375 (CellTiterGlo, 72 hours). Particulars: Homo sapiens, A-375. The class given is cell-based. The method in brief:
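GI50 derived from % growth inhibition relative to untreated wells, after luminescence (CellTiterGlo, 10 min) was converted to cell counts using a standard curve. Compound given as 3-fold dilutions from a 2× 5,000 nM stock in serum-free DMEM; 3000 A375 cells/well, 72 h culture at 37 °C.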

Assay [2] concerns HCT116 cells (colorectal carcinoma). The experiment in a line: Inhibition of cancer cell proliferation, HCT116 (CellTiterGlo, 72 hours). The class given is cell-based. The conditions noted are these: Homo sapiens, HCT-116. The method, then: Measurement of Inhibition of Cancer Cell Proliferation (HCT116/Colorectal Carcinoma)
The following protocol used a HCT116 cell line, which cell line is a model for colorectal carcinoma. HCT116 cells were split and 3000 cells in 100 μl of growth medium were added per well of a flat-bottom 96-well plate. A two-fold test compound solution in serum-free RPM1640 was made, starting at 5,000 nM. Then, 3-fold serial dilutions were made across the plate from well 1 to well 11. Well 12, the last well in a row on the plate, was left as untreated control. 100 μl compound solutions were then transferred to the wells, so the total volume of media was 200 μl per well. Plates were returned to a 37° C. incubator, and the cells were cultured for 72 hours. To measure cell proliferation after 72 hours, media was discarded from the plates, 50 μl/well of fresh medium was added, and 50 μl CellTiterGlo solution was added (Promega Cat#G7573). The plate was covered with a dark lid and incubated for 10 min. A white sealing tape was applied to the bottom of the plate, and the plate was read in a luminescence plate reader. […] 50 μl CellTiterGlo was added per well, and the plate was read in a luminescence plate reader after 10 min. The reading was plotted vs. cell number to generate a standard curve and the equation of the curve fit. The compound-treated sample luminescence readings were converted to cell numbers using the curve-fit equation. The percent of inhibition, using untreated control as 100% growth, was then calculated. GI50 was then calculated by GraphPad Prism.
Background: ATP-based viability assays read luminescence as a measure of living cells.

In another assay the target is T1, MEK1 activated ERK1 (Homo sapiens, UniProt P27361).
T1 construct: purchased Millipore (Billerica, Mass.) 14-439-K
Kind of assay: Omnia continuous-read kinase assay for potency against MEK1 activated ERK1. In kind it is biochemical. Particulars: MEK1 activated ERK1, ATP at KM; read-out: ERK1 Omnia WT ATP KM IC50. The method in brief: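 Apparent IC50 came from initial reaction slopes (RFU vs time) plotted against log inhibitor with a variable-slope fit. Reactions were started with ERK1 (4 nM final) added to 50 μM ATP, roughly at its appKM, and 10 μM Sox-conjugated ST17 peptide in 20 mM Tris pH 7.5, 5 mM MgCl2. Fluorescence was monitored every 71 seconds.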

The test system of assay [3] is HT-29 cells (colorectal adenocarcinoma). Kind of assay: Inhibition of cancer cell proliferation, HT-29 (CellTiterGlo, 72 hours). In kind it is cell-based. Particulars: Homo sapiens. A digest of the protocol:
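Proliferation over 72 h at 37° C was read by CellTiterGlo luminescence, translated to cell counts with a cell-density standard curve (390–50,000 cells). Compound added as 3-fold dilutions from a 5,000 nM two-fold stock to 3000 seeded HT-29 cells; GI50 from percent inhibition relative to untreated wells.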

Another assay has as its target T2, Erk1 (Homo sapiens, UniProt P27361).
T2 construct: purchased Millipore 14-439
Kind of assay: Protein Mass Modification Assay (intact protein MALDI, 60 min, 10-fold excess of compound). In kind it is binding. A digest of the protocol:
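Percent covalent modification comes from the intact-protein MALDI centroid mass shift, treated versus control, divided by compound MW. Before analysis, human Erk1 was exposed to compound at 10-fold excess over protein for 60 min at room temperature.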

Assay [4] deals with ERK1/2 phosphorylation of p90RSK in HT29 cells. The experiment in a line: pRSK MSD Assay in HT29 cells. In kind it is cell-based. The conditions noted are these: Homo sapiens, HT-29, read-out: ERK1/ERK2 PRSK MSD HT29 EC50. The method in brief: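 Phospho-RSK level, read by electrochemiluminescence on RSK-antibody-coated MSD plates with a phospho-RSK/Sulfo-tag detection pair, reports cellular ERK1/2 activity. HT29 cells, kept overnight in 0.1% FBS medium, were exposed to compound for 120 min at 37° C before lysis.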

In the next assay the test system is ERK1/ERK2. Kind of assay: Measurement of Erk occupancy with biotinylated covalent probe I-299 (HT-29). Particulars: HT-29 cells. In kind it is cell-based. As for the experimental part: Measurement of Erk Occupancy with Biotinylated Covalent Probe
This experiment measured occupancy of the ERK1/ERK2 target by compounds according to the invention. This experiment was conducted using the Mesoscale Discovery test kit (Cat. # N45107B). One day before the assay, cells were split and added at 50,000 cells per well to a flat-bottom 96 well plate in 200 μl of growth medium. The next day, the medium was discarded, 100 μl medium containing test compound was added, and the plate was incubated at 37° C. for 120 minutes. The plate was rinsed once with PBS, and 50 μl lysis buffer with test compound was added. The plate was incubated at 4° C. for 30 min, and 30 μl of lysate was transferred to a plate to capture total and phosphor-Erk. Biotinylated probe 1-299 was diluted in lysis buffer and added to each well to a final concentration of 0.2 μM. The plate was incubated for 2 hr under constant shaking at room temperature. The plate was washed 3 times with MSD wash buffer. To detect the biotinylated probe bonding, tagged streptavidin was added (Mesoscale Discovery, Cat. # R32AD-1) at 1 μg/ml, 25 μl/well, followed by a 60 min incubation under shaking. The plate was washed 3 times, 150 μl MSD Read Buffer (Mesoscale Discovery, Cat. R61TX) was added and the plate was read in a plate reader manufactured by MSD. Percent occupancy by test compound at Erk was calculated by comparing the chemiluminescence readings from treated cells as compared to the chemiluminescence readings in untreated controls (which are defined as 100% probe bonding or 0% test compound occupancy). The amount of covalent probe signal divided by the amount of ERK signal for samples with no test compound treatment represents the maximum probe signal (MPS). In samples treated with test compound prior to covalent probe, the ratio of probe signal to ERK signal (the test probe signal, TPS) was reduced by the degree of target occupancy by the test compound which blocks covalent probe binding. The difference between the MPS and the TPS, divided by the MPS gave the target occupancy by the test compound. This ratio was then expressed as a percent occupancy. Results from this assay are provided in Table A below under the column “Occupancy EC50 (nM) HT-29.”

Usually GI50 stands for the concentration giving 50% growth inhibition. A high value points to lower sensitivity of the cells. By IC50 is commonly meant the concentration at which inhibition is half-maximal.

T2 sequence (P27361 whole entry): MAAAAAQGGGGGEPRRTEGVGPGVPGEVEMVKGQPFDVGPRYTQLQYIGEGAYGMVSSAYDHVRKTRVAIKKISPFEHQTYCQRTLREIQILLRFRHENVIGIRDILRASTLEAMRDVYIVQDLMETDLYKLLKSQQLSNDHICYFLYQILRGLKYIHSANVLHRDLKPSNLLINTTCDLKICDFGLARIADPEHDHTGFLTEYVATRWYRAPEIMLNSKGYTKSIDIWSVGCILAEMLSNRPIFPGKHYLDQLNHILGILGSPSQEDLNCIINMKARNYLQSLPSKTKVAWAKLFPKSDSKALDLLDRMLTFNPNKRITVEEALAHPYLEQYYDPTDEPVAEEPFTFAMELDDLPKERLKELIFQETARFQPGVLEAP
T1 sequence (P27361 whole entry): as above

Regarding `C=CC(=O)Nc1cc(C)ccc1Nc1nc(Nc2cc(C(C)=O)ccc2C)ncc1Cl` [Compound I-239, N-(2-((2-((5-acetyl-2-methylphenyl)amino)-5-chloropyrimidin-4-yl)amino)-5-methylphenyl)acrylamide], the GI50 is 101 to 500 nM in assay [1], 501 to 999 nM in assay [2] and 101 to 500 nM in assay [3]. At MEK1 activated ERK1, the concentration for half-maximal inhibition (IC50) fell in the range of 101 to 500 nM. In addition, the “ERK1 Mass Mod (%)” value on Erk1 was “E (key: E: a mass modification of ≧70%; F: a mass modification of 31-69%; G: a mass modification ≦30%)”.
In the case of `C=CC(=O)Nc1cc(F)ccc1Nc1nc(Nc2cc(C(N)=O)ccc2C)ncc1Cl` [Compound I-206, 3-((4-((2-acrylamido-4-fluorophenyl)amino)-5-chloropyrimidin-2-yl)amino)-4-methylbenzamide], the figures for the EC50 (in assay [4]; in the assay with ERK1/ERK2) were 101 to 500 nM and below 100 nM, respectively. Further, the GI50 in assay [3] is below 100 nM.
As for `C=CC(=O)Nc1ccccc1Nc1nc(Nc2cc(CO)c(F)cc2C)ncc1C(F)(F)F` [Compound I-77, N-(2-((2-((4-Fluoro-5-(hydroxymethyl)-2-methylphenyl)amino)-5-(trifluoromethyl)pyrimidin-4-yl)amino)phenyl)acrylamide], the EC50 in assay [4] was 101 to 500 nM; with ERK1/ERK2, below 100 nM. Also, the 50% growth inhibitory concentration (GI50) was 101 to 500 nM in assay [1], 101 to 500 nM in assay [2] and below 100 nM in assay [3].
Turning to `C=CC(=O)Nc1ccccc1Nc1nc(Nc2cc(S(N)(=O)=O)ccc2C)ncc1Cl` [Compound I-205, N-(2-((5-chloro-2-((2-methyl-5-sulfamoylphenyl)amino)pyrimidin-4-yl)amino)phenyl)acrylamide], the EC50 (in assay [4]; in the assay on ERK1/ERK2) was below 100 nM each time. For the same compound, the GI50 in assay [3] was below 100 nM.
In the case of `C=CC(=O)Nc1ccccc1Nc1nc(NC2CCCC(C(N)=O)C2)ncc1Cl` (racemic) [Compound I-102], the EC50 (in assay [4]; in the assay with ERK1/ERK2) was below 100 nM throughout. Also, in assay [3], the GI50 lay in the range of 101 to 500 nM. The “ERK1 Mass Mod (%)” value on Erk1 was “E (a mass modification of ≧70%)”.
In the case of `C=CC(=O)Nc1ccccc1Nc1nc(Nc2cc(C(N)=O)ccc2C)ncc1Cl` [Compound I-319, 3-(4-(2-acrylamidophenylamino)-5-chloropyrimidin-2-ylamino)-4-methylbenzamide], the EC50 (in assay [4]; with ERK1/ERK2) was below 100 nM in each case. Besides, the 50% growth inhibitory concentration (GI50) in assay [3] lay within 101 to 500 nM.
`C=CC(=O)Nc1cc(F)ccc1Nc1nc(Nc2ccc(F)cc2C)ncc1Cl` [Compound I-212, N-(2-((5-chloro-2-((4-fluoro-2-methylphenyl)amino)pyrimidin-4-yl)amino)-5-fluorophenyl)acrylamide]: the EC50 (in assay [4]; in the assay on ERK1/ERK2) was below 100 nM in each case. The compound further displayed a GI50 in assay [3] of 101 to 500 nM. On Erk1, the “ERK1 Mass Mod (%)” value is given as “F (a mass modification of 31-69%)”.
For the compound `C=CC(=O)Nc1cc(C)ccc1Nc1nc(N[C@H]2CCCN(C(C)=O)C2)ncc1Cl` [Compound I-139, (S)—N-(2-((2-((1-acetylpiperidin-3-yl)amino)-5-chloropyrimidin-4-yl)amino)-5-methylphenyl)acrylamide], in assay [4], the EC50 is below 100 nM. For the same compound, the GI50 in assay [1], in assay [2] and in assay [3] was below 100 nM in each case. For the same compound, the “ERK1 Mass Mod (%)” value on Erk1 was “E (a mass modification of ≧70%)”.
Turning to `C=CC(=O)Nc1ccccc1Nc1nc(Nc2cc(C(N)=O)c(F)cc2C)ncc1C(F)(F)F` [Compound I-76, 5-((4-((2-Acrylamidophenyl)amino)-5-(trifluoromethyl)pyrimidin-2-yl)amino)-2-fluoro-4-methylbenzamide], the EC50 was 501 to 999 nM in assay [4] and below 100 nM in the assay on ERK1/ERK2. Besides, the 50% growth inhibitory concentration (GI50) in assay [1] is 101 to 500 nM; in assay [3], below 100 nM.
For the compound `C=CC(=O)Nc1ccccc1Nc1nc(Nc2cncc(OC)c2)ncc1C(F)(F)F` [Compound I-86, N-(2-((2-((5-Methoxypyridin-3-yl)amino)-5-(trifluoromethyl)pyrimidin-4-yl)amino)phenyl)acrylamide], in assay [4], the EC50 was below 100 nM. For the same compound, the concentration for 50% growth inhibition (GI50) in assay [1], in assay [2] and in assay [3] was below 100 nM each time. Moreover, the “ERK1 Mass Mod (%)” value on Erk1 is reported as “E (a mass modification of ≧70%)”.
On to `C=CC(=O)Nc1ccccc1Nc1nc(Nc2cc(C(N)=O)c(F)cc2C)ncc1Cl` [Compound I-214, 5-((4-((2-acrylamidophenyl)amino)-5-chloropyrimidin-2-yl)amino)-2-fluoro-4-methylbenzamide], for which the EC50 (in assay [4]; in the assay with ERK1/ERK2) was below 100 nM in each case. In assay [3], this compound gave a concentration for 50% growth inhibition (GI50) below 100 nM.
As for `C=CC(=O)Nc1ccccc1Nc1nc(N[C@@H]2CCC[C@H](C(N)=O)C2)ncc1C(F)(F)F` (racemic) [Compound I-2, Rac-cis-3-((4-((2-acrylamidophenyl)amino)-5-(trifluoromethyl)pyrimidin-2-yl)amino)cyclohexanecarboxamide], the EC50 (in assay [4]; with ERK1/ERK2) was below 100 nM in each case. Further, the IC50 at MEK1 activated ERK1 is below 100 nM. Besides, the GI50 in assay [3] was in the range of 101 to 500 nM. Further, at Erk1, the “ERK1 Mass Mod (%)” value is listed as “E (a mass modification of ≧70%)”.
Consider `C=CC(=O)Nc1ccccc1Nc1nc(Nc2ccc(F)cc2C#N)ncc1Cl` [Compound I-211, N-(2-((5-chloro-2-((2-cyano-4-fluorophenyl)amino)pyrimidin-4-yl)amino)phenyl)acrylamide], for which the EC50 (in assay [4]; in the assay on ERK1/ERK2) was below 100 nM throughout. Besides, the GI50 in assay [3] is 101 to 500 nM.
